{"source": "patent US20080206422A1", "about": "“Flavour Modulating Substances” (QUEST INTERNATIONAL SERVICES B.V., priority 2004, published 2008)", "key": {"[1]": {"assay": "Tasting session of tap water solutions by a professional panel", "protocol": "For a tasting session the following solutions were prepared: • 1) A solution of 0.025% of a composition as prepared in example 1 in tap water; • 2) A solution of 0.025% of a composition as prepared in example 1 and 0.3% NaCl in tap water; • 3) A solution of 0.025% of a composition as prepared in example 1, 0.3% NaCl and 0.03% mono sodium glutamate in tap water; • 4) A solution of 0.005% of a composition as prepared in example 2 in tap water; • 5) A solution of 0.005% of a composition as prepared in example 2 and 0.3% NaCl in tap water; and • 6) A solution of 0.005% of a composition as prepared in example 2, 0.3% NaCl and 0.03% mono sodium glutamate in tap water. • All samples were tasted by a professional panel."}, "[2]": {"assay": "Tasting of fish bouillon samples by a professional panel", "settings": "sample 5: fish bouillon + 20 ppm of composition of example 2", "protocol": "(§1) Six samples were prepared:\n2. Fish bouillon+100 ppm of a composition as prepared in example 1;\n5. Fish bouillon+20 ppm of a composition as prepared in example 2; and\n(§2) All samples were tasted by a professional panel. There was general agreement about the differences in taste between the samples."}, "[3]": {"assay": "Tasting of Nam Pla (Thai fish sauce) samples by a professional panel", "settings": "sample 6: Nam Pla + 20 ppm of composition of example 2", "protocol": "as §1\n3. Nam Pla* ex Unilever Thailand;\n4. Nam Pla ex Unilever Thailand+100 ppm of a composition as prepared in example 1;\n6. Nam Pla ex Unilever Thailand+20 ppm of a composition as prepared in example 2.\nNam Pla is a Thai fish sauce produced from a mixture of fish (anchovy), salt and sugar that is fermented for more than 6 months at 30-35° C. Protein hydrolysate and lipid oxidation products are formed through microbiological and enzymatic breakdown of the fish.\nas §2"}}, "data": [{"smiles": "CC(O)C(=O)NCCc1ccc(O)cc1", "note": "(stereo not drawn) [example 2, N-lactoyl tyramine]", "values": [{"measurement": "taste description by professional panel", "setting": "[1]; solution 4): 0.005% of composition of example 2 in tap water", "value": "a clean mouthfeel, body and thickness"}, {"measurement": "taste description by professional panel", "setting": "[1]; solution 5): 0.005% of composition of example 2 and 0.3% NaCl in tap water", "value": "a longlasting effect, a clean mouthfeel, body and thickness and as bouillon-like"}, {"measurement": "taste description by professional panel", "setting": "[1]; solution 6): 0.005% of composition of example 2, 0.3% NaCl and 0.03% mono sodium glutamate in tap water", "value": "a longlasting effect, a strong clean mouthfeel, body and thickness and as strong, natural and complex bouillon-like"}, {"measurement": "difference in taste compared with plain fish bouillon (sample 1)", "setting": "[2]", "value": "more body and mouthfeel, a stronger sweet taste impression and a more longlasting effect"}, {"measurement": "difference in taste compared with plain Nam Pla (sample 3)", "setting": "[3]", "value": "more body and mouthfeel, a stronger sweet taste impression and a more longlasting effect"}, {"measurement": "fermented fish character and perceived quality compared with plain Nam Pla (sample 3)", "setting": "[3]", "value": "a more rounded, natural fermented fish character and was perceived as a higher quality Nam Pla"}]}]}
